This note sets out measurements from EP0888340B1, “4-(BENZO-1,3-DIOXOLYL)-PYRROLIDINE-3-CARBOXYLIC ACID DERIVATIVES AS ENDOTHELIN ANTAGONISTS” (Abbott Laboratories, priority 1996, dated 1997).

Counter-ions that a name gives are not always drawn.

The assay deals with T1, ETB Receptor (Sus scrofa, UniProt P35463).
T1 construct: Porcine cerebellum was homogenized in 25 volumes (w/v) of 10 mM Hepes (pH 7.4); from tissue; host or cells: porcine cerebellum membranes
T1 sequence (P35463 27-443): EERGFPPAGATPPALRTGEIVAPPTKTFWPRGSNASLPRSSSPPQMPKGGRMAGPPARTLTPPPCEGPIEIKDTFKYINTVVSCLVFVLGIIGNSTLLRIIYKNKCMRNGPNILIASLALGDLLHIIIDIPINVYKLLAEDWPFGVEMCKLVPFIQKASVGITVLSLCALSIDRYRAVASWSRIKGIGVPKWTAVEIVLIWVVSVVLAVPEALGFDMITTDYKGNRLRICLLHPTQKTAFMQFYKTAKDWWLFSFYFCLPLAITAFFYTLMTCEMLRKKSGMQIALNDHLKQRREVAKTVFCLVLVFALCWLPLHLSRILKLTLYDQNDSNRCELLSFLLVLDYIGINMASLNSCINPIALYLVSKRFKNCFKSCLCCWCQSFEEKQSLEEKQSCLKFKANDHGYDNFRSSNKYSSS
Kind of assay: ETB receptor binding assay: [125I]ET-3 binding to membranes. Particulars: test compound 1 µM; displacement of 0.1 nM [125I]ET-3; Porcine cerebellum membranes; 4 hours at 25 °C. Here is the method: Preparation of membranes from Porcine cerebellum:
Porcine cerebellum was homogenized in 25 volumes (w/v) of 10 mM Hepes (pH 7.4) containing 0.25 M sucrose and protease inhibitors (3 mM EDTA, 0.1 mM PMSF, and 5 µg/ml Pepstatin A) by 3-10 sec polytron at 13,500 rpm with 10 sec intervals. The mixture was centrifuged at 1000xg for 10 min. The supernatant was collected and centrifuged at 30,000xg for 30 min. The precipitate was resuspended in Buffer A (20 mM Tris, 100 mM NaCl, 10 mM MgCl2, pH 7.4) containing the aforementioned protease inhibitors and centrifuged again. The final pellet was resuspended in Buffer A containing protease inhibitors and stored at -80°C until used. Protein content was determined by the Bio-Rad dye-binding protein assay.
[^125I]ET-3 binding to membranes:
Binding assays were performed in 96-well microtiter plates pretreated with 0.1% BSA. Membranes prepared from cells were diluted ∼100 fold in Buffer B (20 mM Tris, 100 mM NaCl, 10 mM MgCl2, pH 7.4, with 0.2% BSA, 0.1 mM PMSF, 5 µg/mL Pepstatin A, 0.025% bacitracin, and 3 mM EDTA) to a final concentration of 0.2 mg/mL of protein. In competition studies, membranes (0.02 mg) were incubated with 0.1 nM of [^125I]ET-3 in Buffer B (final volume: 0.2 mL) in the presence of increasing concentrations of unlabeled ET-3 or a test compound for 4 hours at 25 °C. After incubation, unbound ligands were separated from bound ligands by a vacuum filtration method using glass-fiber filter strips in PHD cell harvesters (Cambridge Technology, Inc., MA), followed by washing the filter strips with saline (1 mL) for three times. Nonspecific binding was determined in the presence of 1 µM ET-1. The per cent inhibition at a concentration of 1 µM is shown. […]

As to `CCCOc1ccc([C@H]2[C@H](C(=O)O)[C@@H](c3ccc4c(c3)OCO4)CN2CC(=O)Nc2c(CC)cccc2CC)cc1OC` (racemic) [Example 9, trans,trans-2-(3-methoxy-4-propoxyphenyl)-4-(1,3-benzodioxol-5-yl)-1-((2,6-diethyl)phenylaminocarbonylmethyl)-pyrrolidine-3-carboxylic acid], the inhibition at 1 µM stood at 94.8%.

In turn, `CCCOc1ccc([C@H]2[C@H](C(=O)O)[C@@H](c3cc(OC)c4c(c3)OCO4)CN2CC(=O)Nc2c(CC)cccc2CC)cc1` (racemic) [Example 12, trans,trans-2-(4-propoxyphenyl)-4-(7-methoxy-1,3-benzodioxol-5-yl)-1-((2,6-diethyl)phenylaminocarbonylmethyl)-pyrrolidine-3-carboxylic acid] returned an inhibition at 1 µM of 96.7%. Under `COc1ccc([C@H]2[C@H](C(=O)O)[C@@H](c3ccc4c(c3)OCO4)CN2CC(=O)Nc2c(Br)cccc2Br)cc1` [Example 14, trans,trans-2-(4-methoxyphenyl)-4-(1,3-benzodioxol-5-yl)-1-((2,6-dibromo)phenylaminocarbonylmethyl)-pyrrolidine-3-carboxylic acid] stands 96.6%; under `CCc1cccc(OC)c1NC(=O)CN1C[C@H](c2ccc3c(c2)OCO3)[C@@H](C(=O)O)[C@@H]1c1ccc(OC)cc1` [Example 27, trans,trans-2-(4-Methoxyphenyl)-4-(1,3-benzodioxol-5-yl)-1-(N-(2-ethyl-6-methoxy)phenylaminocarbonylmethyl)-pyrrolidine-3-carboxylic acid], 98.8%; under `COc1ccc([C@H]2[C@H](C(=O)O)[C@@H](c3ccc4c(c3)OCO4)CN2CC(=O)Nc2c(OC)cccc2OC)cc1` [Example 16, trans,trans-2-(4-methoxyphenyl)-4-(1,3-benzodioxol-5-yl)-1-((2,6-dimethoxy)phenylaminocarbonylmethyl)-pyrrolidine-3-carboxylic acid], 92.3%.

In the case of `CCOc1ccc([C@H]2[C@H](C(=O)O)[C@@H](c3ccc4c(c3)OCO4)CN2CC(=O)Nc2c(CC)cccc2CC)cc1F` (racemic) [Example 7, trans,trans-2-(3-Fluoro-4-ethoxyphenyl)-4-(1,3-benzodioxol-5-yl)-1-((2,6-diethyl)phenylaminocarbonylmethyl)-pyrrolidine-3-carboxylic acid], the inhibition at 1 µM came out at 94.5%. The same measure for `CCCOc1ccc([C@H]2[C@H](C(=O)O)[C@@H](c3ccc4c(c3)OCO4)CN2CC(=O)Nc2c(CC)cccc2CC)cc1` (racemic) [Example 5, trans,trans-2-(4-Propoxyphenyl)-4-(1,3-benzodioxol-5-yl)-1-((2,6-diethyl)phenylaminocarbonylmethyl)-pyrrolidine-3-carboxylic acid]: 96.5%. Consider `COc1ccc([C@H]2[C@H](C(=O)O)[C@@H](c3ccc4c(c3)OCO4)CN2CC(=O)Nc2c(C(C)C)cccc2C(C)C)cc1` [Example 21, trans,trans-2-(4-methoxyphenyl)-4-(1,3-benzodioxol-5-yl)-1-((2,6-diisopropyl)phenylaminocarbonylmethyl)-pyrrolidine-3-carboxylic acid], for which at 1 µM the inhibition was 97.1%.

`CCc1cccc(CC)c1NC(=O)CN1C[C@H](c2ccc3c(c2)OCO3)[C@@H](C(=O)O)[C@@H]1c1ccc(OC)cc1` [Example 15, [2R,3R,4S]2-(4-Methoxyphenyl)-4-(1,3-benzodioxol-5-yl)-1-(N-(2,6-diethyl)phenylaminocarbonylmethyl)-pyrrolidine-3-carboxylic acid, hydrochloride salt] showed an inhibition at 1 µM of 93.4%.

`CCc1cc(C)cc(CC)c1NC(=O)CN1C[C@H](c2ccc3c(c2)OCO3)[C@@H](C(=O)O)[C@@H]1c1ccc(OC)cc1` [Example 22, trans,trans-2-(4-methoxyphenyl)-4-(1,3-benzodioxol-5-yl)-1-((2,6-diethyl-4-methyl)phenylaminocarbonylmethyl)-pyrrolidine-3-carboxylic acid] displayed an inhibition at 1 µM of 95.3%. For the compound `CCCOc1ccc([C@H]2[C@H](C(=O)O)[C@@H](c3ccc4c(c3)OCO4)CN2CC(=O)Nc2c(C)cc(C)cc2C)cc1` (racemic) [Example 3, trans,trans-2-(4-Propoxyphenyl)-4-(1,3-benzodioxol-5-yl)-1-((2,4,6-trimethyl)phenylaminocarbonylmethyl)-pyrrolidine-3-carboxylic acid], the inhibition at 1 µM came out at 82.1%.

Regarding `CCc1cccc(CC)c1NC(=O)CN1C[C@H](c2cc(OC)c3c(c2)OCO3)[C@@H](C(=O)O)[C@@H]1c1ccc(OC)c(F)c1` (racemic) [Example 8, trans,trans-2-(3-Fluoro-4-methoxyphenyl)-4-(7-methoxy-1,3-benzodioxol-5-yl)-1-((2,6-diethyl)phenylaminocarbonylmethyl)-pyrrolidine-3-carboxylic acid], 1 µM produced 93.6% inhibition. Under `COc1ccc([C@H]2[C@H](C(=O)O)[C@@H](c3ccc4c(c3)OCO4)CN2CC(=O)Nc2c(C)cc(C)cc2C)cc1F` (racemic) [Example 2, trans,trans-2-(3-Fluoro-4-methoxyphenyl)-4-(1,3-benzodioxol-5-yl)-1-((2,4,6-trimethyl)phenylaminocarbonylmethyl)-pyrrolidine-3-carboxylic acid] stands 91.5%; under `CCc1cc(C(=O)O)cc(CC)c1NC(=O)CN1C[C@H](c2ccc3c(c2)OCO3)[C@@H](C(=O)O)[C@@H]1c1ccc(OC)cc1` [Example 24, trans,trans-2-(4-methoxyphenyl)-4-(1,3-benzodioxol-5-yl)-1-((4-carboxy-2,6-diethyl)phenylaminocarbonylmethyl)-pyrrolidine-3-carboxylic acid], 93.3%. On to `COc1ccc([C@H]2[C@H](C(=O)O)[C@@H](c3ccc4c(c3)OCO4)CN2CC(=O)Nc2c(C)cccc2C)cc1` (racemic) [Example 11, trans,trans-2-(4-methoxyphenyl)-4-(1,3-benzodioxol-5-yl)-1-((2,6-dimethyl)phenylaminocarbonylmethyl)-pyrrolidine-3-carboxylic acid], for which the inhibition at 1 µM came to 96%. Take `CCc1cccc(CC)c1NC(=O)CN1C[C@H](c2ccc3c(c2)OCO3)[C@@H](C(=O)O)[C@@H]1c1ccc(OC)c(F)c1` (racemic) [Example 6, trans,trans-2-(3-Fluoro-4-methoxyphenyl)-4-(1,3-benzodioxol-5-yl)-1-((2,6-diethyl)phenylaminocarbonylmethyl)-pyrrolidine-3-carboxylic acid]: the inhibition at 1 µM came out at 92.9%. The same measure for `CCc1cc(CC)c(NC(=O)CN2C[C@H](c3ccc4c(c3)OCO4)[C@@H](C(=O)O)[C@@H]2c2ccc(OC)cc2)c(CC)c1` [Example 19, trans,trans-2-(4-methoxyphenyl)-4-(1,3-benzodioxol-5-yl)-1-((2,4,6-triethyl)phenylaminocarbonylmethyl)-pyrrolidine-3-carboxylic acid]: 94.9%.

Take `CCc1cc([N+](=O)[O-])cc(CC)c1NC(=O)CN1C[C@H](c2ccc3c(c2)OCO3)[C@@H](C(=O)O)[C@@H]1c1ccc(OC)cc1` [Example 25, trans,trans-2-(4-methoxyphenyl)-4-(1,3-benzodioxol-5-yl)-1-((4-nitro-2,6-diethyl)phenylaminocarbonylmethyl)-pyrrolidine-3-carboxylic acid]: the inhibition at 1 µM came out at 95.7%.

`CCCOc1ccc(C2C(C(=O)O)C(c3ccc4c(c3)OCO4)CN2CC(=O)Nc2c(CC)cccc2CC)cc1` [Example 20, [2R,3R,4S]2-(4-Propoxyphenyl)-4-(1,3-benzodioxol-5-yl)-1-(N-((2,6-diethyl)phenylaminocarbonylmethyl)-pyrrolidine-3-carboxylic acid] displayed an inhibition at 1 µM of 95.5%. For the compound `CCc1cccc(C)c1NC(=O)CN1C[C@H](c2ccc3c(c2)OCO3)[C@@H](C(=O)O)[C@@H]1c1ccc(OC)cc1` [Example 18, trans,trans-2-(4-methoxyphenyl)-4-(1,3-benzodioxol-5-yl)-1-((2-ethyl-6-methyl)phenylaminocarbonylmethyl)-pyrrolidine-3-carboxylic acid], testing at 1 µM gave an inhibition of 94.9%.

A word on the inhibition: it is the share of the control response that was lost under treatment. The low end stands for little suppression, the high end for strong suppression.
